Reference: EP3915971A1, “PHENYL-S(O)N-PHENYLAMIDINES AND THE USE THEREOF AS FUNGICIDES” (Bayer Aktiengesellschaft, priority 2020, dated 2021)

Columns and labels:
[1] = LogP measurement by HPLC on reversed phase columns (EEC directive 79/831 Annex V.A8); assay type: physicochemical; details: reversed phase HPLC columns
Experimental: Measurement of LogP values was performed according to EEC directive 79/831 Annex V.A8 by HPLC (High Performance Liquid Chromatography) on reversed phase columns with the following methods: • ^[a] LogP value is determined by measurement of LC-UV, in an acidic range, with 0.1% formic acid in water and acetonitrile as eluent (linear gradient from 10% acetonitrile to 95% acetonitrile). • ^[b] LogP value is determined by measurement of LC-UV, in a neutral range, with 0.001 molar ammonium acetate solution in water and acetonitrile as eluent (linear gradient from 10% acetonitrile to 95% acetonitrile). • ^[c] LogP value is determined by measurement of LC-UV, in an acidic range, with 0.1% phosphoric acid and acetonitrile as eluent (linear gradient from 10% acetonitrile to 95% acetonitrile).
If more than one LogP value is available within the same method, all the values are given and separated by "+". […]

Phakospora pachyrhizi = test: in vivo preventive test on Phakospora pachyrhizi (soybean rust); details: Glycine max, 264 h; 500 ppm of active ingredient; preventive spray on young soybean plants, inoculation after 24 hours, evaluated 11 days after inoculation; 0% = control plants, 100% = no disease; read-out: efficacy
Experimental: Example A: in vivo preventive test on Phakospora pachyrhizi (soybean rust) [table] The active ingredients were made soluble and homogenized in a mixture of Dimethyl sulfoxide/Acetone/ /Tween® 80 and then diluted in water to the desired concentration. The young plants of soybean were treated by spraying the active ingredient prepared as described above. Control plants were treated only with an aqueous solution of Acetone/Dimethyl sulfoxide/ Tween® 80. After 24 hours, the plants were contaminated by spraying the leaves with an aqueous suspension of Phakospora pachyrhizi spores. The contaminated soybean plants were incubated for 24 hours at 24°C and at 100% relative humidity and then for 10 days at 24°C and at 70-80% relative humidity. The test was evaluated 11 days after the inoculation. 0% means an efficacy which corresponds to that of the control plants while an efficacy of 100% means that no disease was observed.

[2] = method [a]: LC-UV, acidic range, 0.1% formic acid in water and acetonitrile as eluent (linear gradient 10% to 95% acetonitrile)

chromatographic logP [1, 2] | chromatographic logP ([1]; method [b]: LC-UV, neutral range, 0.001 molar ammonium acetate solution in water and acetonitrile as eluent (linear gradient 10% to 95% acetonitrile)) | SMILES | pest or weed control at 500 ppm (Phakospora pachyrhizi) [%]
2.16 |  | CCN(C)C=Nc1cc(C)c(Sc2ccccc2Cl)cc1C [Example I-005, N'-[4-[(2-chlorophenyl)thio]-2,5-dimethylphenyl]-N-ethyl-N-methylmethanimidamide] | ≥ 70
1.77 |  | CCN(C)C=Nc1cc(C)c(Sc2ccccc2C)cc1Cl [Example I-006, N'-[2-chloro-5-methyl-4-[(2-methylphenyl)thio]phenyl]-N-ethyl-N-methylmethanimidamide] | ≥ 70
1.83 |  | CCN(C)C=Nc1cc(C)c(Sc2ccccc2Cl)cc1Cl [Example I-007, N'-[2-chloro-4-[(2-chlorophenyl)thio]-5-methylphenyl]-N-ethyl-N-methylmethanimidamide] | ≥ 70
1.6 |  | CCN(C)C=Nc1cc(C)c(Sc2ccccc2F)cc1Cl [Example I-008, N'-[2-chloro-4-[(2-fluorophenyl)thio]-5-methylphenyl]-N-ethyl-N-methylmethanimidamide] | ≥ 70
1.18 |  | CCN(C)C=Nc1cc(C)c(S(=O)(=O)c2ccccc2Cl)cc1C [Example I-020, N'-[4-(2-chlorophenyl)sulfonyl-2,5-dimethylphenyl]-N-ethyl-N-methylmethanimidamide] | ≥ 70
1.53 |  | CCN(C)C=Nc1cc(F)c(Sc2ccccc2)cc1C [Example I-021, N-ethyl-N'-(5-fluoro-2-methyl-4-phenylsulfanylphenyl)-N-methylmethanimidamide] | ≥ 70
1.66 |  | CCN(C)C=Nc1cc(F)c(Sc2ccccc2C)cc1C [Example I-022, N-ethyl-N'-[5-fluoro-2-methyl-4-[(2-methylphenyl)thio]phenyl]-N-methylmethanimidamide] | ≥ 70
1.69 |  | CCN(C)C=Nc1cc(F)c(Sc2ccccc2Cl)cc1C [Example I-023, N'-[4-[(2-chlorophenyl)thio]-5-fluoro-2-methylphenyl]-N-ethyl-N-methylmethanimidamide] | ≥ 70
1.61 |  | CCN(C)C=Nc1cc(Cl)c(Sc2ccccc2F)cc1C [Example I-024, N'-[5-chloro-4-[(2-fluorophenyl)thio]-2-methylphenyl]-N-ethyl-N-methylmethanimidamide] | ≥ 70
1.81 |  | CCN(C)C=Nc1cc(Cl)c(Sc2ccccc2C)cc1C [Example I-025, N'-[5-chloro-2-methyl-4-[(2-methylphenyl)thio]phenyl]-N-ethyl-N-methylmethanimidamide] | ≥ 70
1.42 |  | CCN(C)C=Nc1cc(Cl)c(S(=O)(=O)c2ccccc2F)cc1C [Example I-026, N'-[5-chloro-4-(2-fluorophenyl)sulfonyl-2-methylphenyl]-N-ethyl-N-methylmethanimidamide] | ≥ 70
1.93 |  | CCN(C)C=Nc1cc(C)c(S(=O)(=O)c2ccccc2C)cc1Br [Example I-065, N'-[2-bromo-5-methyl-4-(2-methylphenyl)sulfonylphenyl]-N-ethyl-N-methylmethanimidamide] | 
1.34 |  | CCN(C)C=Nc1cc(Br)c(S(=O)(=O)c2ccccc2C#N)cc1C [Example I-070, N'-[5-bromo-4-(2-cyanophenyl)sulfonyl-2-methylphenyl]-N-ethyl-N-methylmethanimidamide] | 
1.81 |  | CCN(C)C=Nc1cc(C)c(S(=O)(=O)c2ccccc2F)cc1Br [Example I-071, N'-[2-bromo-4-(2-fluorophenyl)sulfonyl-5-methylphenyl]-N-ethyl-N-methylmethanimidamide] | 
1.39 |  | CCN(C)C=Nc1cc(C)c(S(=O)(=O)c2ccccc2C)cc1C1CC1 [Example I-072, N'-[2-cyclopropyl-5-methyl-4-(2-methylphenyl)sulfonylphenyl]-N-ethyl-N-methylmethanimidamide] | 
1.18 |  | CCN(C)C=Nc1cc(C)c([S+]([O-])c2ccccc2C)cc1C(C)C (stereo not drawn) [Example I-073, N-ethyl-N'-[2-isopropyl-5-methyl-4-(2-methylphenyl)sulfinylphenyl]-N-methylmethanimidamide] | 
1.07 |  | CCN(C)C=Nc1cc(C)c([S+]([O-])c2ccccc2C)cc1C1CC1 (stereo not drawn) [Example I-074, N'-[2-cyclopropyl-5-methyl-4-(2-methylphenyl)sulfinylphenyl]-N-ethyl-N-methylmethanimidamide] | 

chromatographic logP [1, 2] | chromatographic logP ([1]; method [b]: LC-UV, neutral range, 0.001 molar ammonium acetate solution in water and acetonitrile as eluent (linear gradient 10% to 95% acetonitrile)) | SMILES | pest or weed control at 500 ppm (Phakospora pachyrhizi) [%]
0.9 |  | CCN(C)C=Nc1cc(C)c([S+]([O-])c2ccccc2)cc1C1CC1 (stereo not drawn) [Example I-075, N'-[4-(benzenesulfinyl)-2-cyclopropyl-5-methylphenyl]-N-ethyl-N-methylmethanimidamide] | 
1 |  | CCc1cc([S+]([O-])c2ccccc2F)c(C)cc1N=CN(C)CC (stereo not drawn) [Example I-076, N-ethyl-N'-[2-ethyl-4-(2-fluorophenyl)sulfinyl-5-methylphenyl]-N-methylmethanimidamide] | 
0.93 |  | CCN(C)C=Nc1cc(C)c([S+]([O-])c2ccccc2)cc1Br (stereo not drawn) [Example I-079, N'-[4-(benzenesulfinyl)-2-bromo-5-methylphenyl]-N-ethyl-N-methylmethanimidamide] | 
1.75 |  | CCN(C)C=Nc1cc(C)c(Sc2ccccc2)cc1Br [Example I-080, N'-(2-bromo-5-methyl-4-phenylsulfanylphenyl)-N-ethyl-N-methylmethanimidamide] | 
1.07 |  | CCc1cc([S+]([O-])c2ccccc2C)c(C)cc1N=CN(C)CC (stereo not drawn) [Example I-081, N-ethyl-N'-[2-ethyl-5-methyl-4-(2-methylphenyl)sulfinylphenyl]-N-methylmethanimidamide] | 
2.62 |  | CCN(C)C=Nc1cc(C)c(Sc2ccccc2C)cc1C(F)(F)F [Example I-083, N-ethyl-N-methyl-N'-[5-methyl-4-[(2-methylphenyl)thio]-2-(trifluoromethyl)phenyl]methanimidamide] | 
1.24 |  | CCc1cc(S(=O)(=O)c2ccccc2F)c(C)cc1N=CN(C)CC [Example I-084, N-ethyl-N'-[2-ethyl-4-(2-fluorophenyl)sulfonyl-5-methylphenyl]-N-methylmethanimidamide] | 
1.15 |  | CCN(C)C=Nc1cc(C)c([S+]([O-])c2ccccc2F)cc1C(C)C (stereo not drawn) [Example I-086, N-ethyl-N'-[4-(2-fluorophenyl)sulfinyl-2-isopropyl-5-methylphenyl]-N-methylmethanimidamide] | 
2.14 |  | CCN(C)C=Nc1cc(C)c([S+]([O-])c2ccccc2C)cc1C(F)(F)F (stereo not drawn) [Example I-088, N-ethyl-N-methyl-N'-[5-methyl-4-(2-methylphenyl)sulfinyl-2-(trifluoromethyl)phenyl]methanimidamide] | 
1.04 |  | CCN(C)C=Nc1cc(C)c([S+]([O-])c2ccccc2F)cc1C1CC1 (stereo not drawn) [Example I-089, N'-[2-cyclopropyl-4-(2-fluorophenyl)sulfinyl-5-methylphenyl]-N-ethyl-N-methylmethanimidamide] | 
3.76 |  | CCN(C)C=Nc1cc(C)c(S(=O)(=O)c2ccccc2C)cc1C(F)(F)F [Example I-092, N-ethyl-N-methyl-N'-[5-methyl-4-(2-methylphenyl)sulfonyl-2-(trifluoromethyl)phenyl]methanimidamide] | 
1.45 |  | CCN(C)C=Nc1cc(C)c(S(=O)(=O)c2ccccc2F)cc1C(C)C [Example I-093, N-ethyl-N'-[4-(2-fluorophenyl)sulfonyl-2-isopropyl-5-methylphenyl]-N-methylmethanimidamide] | 
1.58 |  | CCN(C)C=Nc1cc(C)c(S(=O)(=O)c2ccccc2C)cc1C(C)C [Example I-094, N-ethyl-N'-[2-isopropyl-5-methyl-4-(2-methylphenyl)sulfonylphenyl]-N-methylmethanimidamide] | 
1.24 |  | CCN(C)C=Nc1cc(C)c(S(=O)(=O)c2ccccc2)cc1C1CC1 [Example I-095, N'-[4-(benzenesulfonyl)-2-cyclopropyl-5-methylphenyl]-N-ethyl-N-methylmethanimidamide] | 
1.27 |  | CCN(C)C=Nc1cc(C)c(S(=O)(=O)c2ccccc2F)cc1C1CC1 [Example I-096, N'-[2-cyclopropyl-4-(2-fluorophenyl)sulfonyl-5-methylphenyl]-N-ethyl-N-methylmethanimidamide] | 
2.44 | 4.64 | CCN(C)C=Nc1cc(C)c(Sc2ccccc2C#N)cc1C(F)(F)F [Example I-104, N'-[4-[(2-cyanophenyl)thio]-5-methyl-2-(trifluoromethyl)phenyl]-N-ethyl-N-methylmethanimidamide] | 
